This is an account of results in publication PMC6383948, “Evaluation of a class of isatinoids identified from a high-throughput screen of human kinase inhibitors as anti-Sleeping Sickness agents” (PLoS Neglected Tropical Diseases, 2019).

Data set [1] in a line: Shake-flask octanol-water Log D7.4. The format is physicochemical. Particulars: pH 7.4, octanol-water shake-flask. The procedure:
Shake-flask octanol-water distribution coefficient at pH 7.4 (Log D7.4). The aqueous solution used is 10 mM sodium phosphate pH 7.4 buffer. The method has been validated for Log D7.4 ranging from -2 to 5.0.

Data set [2] has as its system S. mansoni adults and somules. The experiment in a line: S. mansoni phenotypic assay, adults and somules (severity score). It is filed as cell-based, Schistosoma mansoni (NMRI isolate). Particulars: for activity against S. mansoni adults and/or somules: 10 μM; for Adult severity score (10 μM): adults; for Adult severity score (10 μM) / Somule severity score (10 μM): score 0-4; for Somule severity score (10 μM): somules. The procedure:
Maintenance of the Schistosoma mansoni life cycle, preparation of somules (post-infective larvae) and adult worms (≥42-days-old), and co-incubation of these stages with test compounds were as described. An NMRI isolate of S. mansoni was used for all whole-organism screens.
Somules (40 units/well/96w round-bottomed plate) or adults (five paris/well/24w plate) were cultured in the presence of compounds at 10 µM and phenotypic changes observed as a function of time using an Zeiss Axiovert A1 inverted microscope (Table S4). A constrained nomenclature was used to describe the effects of compounds on parasites (changes in shape, motility and density). To generate a partially quantitative output for comparing drug effects, each descriptor was awarded a score of 1 and these were summed to a maximum score of 4 [7-10]: evidence of degeneracy or death was awarded the maximum score of 4. For adults specifically, damage to the tegument (outer surface) was also awarded a score of 4 based on the indication that damage to the patrasite’s surface is lethal in vivo [11]. Assays were performed twice and representative data are shown.

The nature of data set [3]: Mouse pharmacokinetics, blood and brain levels after IP dose. Particulars: for Brain level: LLOQ = 25 ng/g; for AUC0-t / Cmax / Tmax: blood. It is filed as in vivo. How it is done:
NEU-4391 was administered intraperitoneally (IP) to two groups of female NMRI mice (Group 1 n = 3; Group 2 n = 6). The compound was prepared in 1% (v/v) DMSO:99% (v/v) 20% (w/v) sulfobutyl ether-beta-cyclodextrin (SBE-β-CD) (Captisol) in water and the dosing volume was 10 mL/kg for a total dose of 10 mg/kg. Food and tap water were available ad libitum. Following IP dosing, Group 1 blood samples were collected from the tail vein into capillary tubes containing K2EDTA at the following time-points: 0.0833, 0.25, 0.5, 1, 2, 4, 6, 8 and 24 h.
In order to obtain simultaneous blood and brain samples, Group 2 mice were placed under terminal anaesthetic (isoflurane) and blood samples (0.3 mL) collected from the retro-orbital sinus into K2EDTA tubes at 0.5 h (n = 3) and 4 h (n = 3) after compound administration. Immediately following blood sample collection, death was confirmed by cervical dislocation and the brain removed. Aliquots of each blood sample were diluted in an equal volume of water. Mouse brain samples were weighed, water was added at a 1/2 (w/v) ratio (brain/water), and then homogenized. Both blood and brain samples were stored -80°C until analysis.
Diluted blood and brain homogenates were processed under standard liquid-liquid extraction procedures using acetonitrile containing an internal standard (Nifedipine) and analyzed by LC-MS/MS. Non-compartmental analysis was performed using the Phoenix pharmacokinetic software version 1.4 (Certara) and Cmax, tmax, AUClast, AUC, and t1/2 were estimated.

The mark [4] stands for this setting: IP 10 mg/kg single dose, individual mice 001F-003F, 10 mg/kg.

Several values for one entry are separate records, joined by “and”; a condition that tells them apart may be missing. Equal values may be shown once. Read-outs that look alike come from different tables or passages of the source.

For `CN(C)S(=O)(=O)c1ccc(N/N=C2\C(=O)Nc3ccccc32)cc1` [NEU-2118, (Z)-N,N-Dimethyl-4-(2-(2-oxoindolin-3-ylidene)hydrazinyl)benzenesulfonamide], the logD in data set [1] was 3.4. Moreover, in data set [2], the “activity against S. mansoni adults and/or somules” value is “moderate and variable activity”. Also, the “Adult severity score (10 μM)” value in data set [2] (3h), in data set [2] (6h), in data set [2] (24h) and in data set [2] (48h) was 3 in each case. The “Somule severity score (10 μM)” value in data set [2] (24h) and in data set [2] (48h) was 0 each time.
For `CNS(=O)(=O)c1ccc(N/N=C2\C(=O)Nc3ccccc32)cc1` [NEU-2124, (Z)-N-Methyl-4-(2-(2-oxoindolin-3-ylidene)hydrazinyl)benzenesulfonamide], the logD in data set [1] was found to be 2.8. In addition, the “activity against S. mansoni adults and/or somules” value in data set [2] was “moderate and variable activity”. The “Adult severity score (10 μM)” value in data set [2] (3h), in data set [2] (6h), in data set [2] (24h) and in data set [2] (48h) was 2 each time. Further, the “Somule severity score (10 μM)” value in data set [2] (24h) turned out to be 1; in data set [2] (48h) it was 0.
As for `CNS(=O)(=O)c1ccc(N/N=C2\C(=O)Nc3cccc(C=C(C)C)c32)cc1` [NEU-4391, (Z)-N-Methyl-4-(2-(4-(2-methylprop-1-en-1-yl)-2-oxoindolin-3-ylidene)hydrazinyl)benzenesulfonamide], the Brain level entry in data set [3] (0.5 h after IP 10 mg/kg, individual mice N1-N3) is “<LLOQ”; in data set [3] (4.0 h after IP 10 mg/kg, individual mice N1-N3) it was “<LLOQ”. The Blood level result in data set [3] (0.5 h after IP 10 mg/kg, individual mice N1-N3, LLOQ = 25 ng/mL, 10 mg/kg) was “<LLOQ and 43.3 ng/mL”; in data set [3] (4.0 h after IP 10 mg/kg, individual mice N1-N3, LLOQ = 25 ng/mL) it was “<LLOQ”. In addition, the “Peripheral blood concentrations after 1 h” value in data set [3] (IP 10 mg/kg, Fig 6A) is reported as “below the lower limit of quantitation”. The “concentration in the brain” value in data set [3] (IP 10 mg/kg, all time points) was “below the limit of detection”. The AUC0-t in data set [3] (setting [4]) is 34.5 ng·h/mL and 39.2 ng·h/mL; in data set [3] (female, NMRI, mouse, whole blood, ip, 10 mg/kg, IP 10 mg/kg single dose, individual mice 001F-003F, read-out: AUC0-t), 39.3 ng·h/mL; in data set [3] (female, NMRI, mouse, whole blood, ip, 10 mg/kg, IP 10 mg/kg, mean of n = 3, read-out: AUC0-t (mean)) it was 37.7 ng·h/mL. The Cmax in data set [3] (setting [4]) was 45.0 ng/mL and 56.5 ng/mL; in data set [3] (female, NMRI, mouse, whole blood, ip, 10 mg/kg, IP 10 mg/kg single dose, individual mice 001F-003F, read-out: Cmax) it was 48.9 ng/mL; in data set [3] (female, NMRI, mouse, whole blood, ip, 10 mg/kg, IP 10 mg/kg, mean of n = 3, read-out: Cmax (mean)), 50.1 ng/mL; in data set [3] (female, NMRI, mouse, whole blood, ip, 10 mg/kg, IP 10 mg/kg, read-out: Cmax), 130 nM. Further, the Tmax was 30 min in data set [3] (setting [4]); 15 min in data set [3] (female, NMRI, mouse, whole blood, ip, 10 mg/kg, IP 10 mg/kg single dose, individual mice 001F-003F, read-out: tmax); 15 to 30 min in data set [3] (female, NMRI, mouse, whole blood, ip, 10 mg/kg, IP 10 mg/kg, n = 3, read-out: tmax (mean row, range)). Besides, the concentration at 0.5 h in data set [3] (female, NMRI, mouse, whole blood, ip, 10 mg/kg, 0.5 h after IP 10 mg/kg, individual mice N1-N3, LLOQ = 25 ng/mL, read-out: Blood level) was 50.7 ng/mL; in data set [3] (female, NMRI, mouse, whole blood, ip, 10 mg/kg, 0.5 h after IP 10 mg/kg, read-out: Blood level (mean)), 47 ng/mL.
